Laboratory results as given in patent US9615576B2, “Pesticidal compositions and processes related thereto” (Dow AgroSciences LLC, priority 2011, dated 2017).

Assays:
[1] = test system: Corn Earworm (CEW) (Helicoverpa zea); assay: Bioassays on Corn Earworm (CEW), 128-well diet tray assay; assay type: in vivo; settings: 168 h, 50 μg/cm^2 test compound on artificial diet, second instar larvae, 25° C., five to seven days, average of eight wells, read-out: CEW Rating (% mortality)
Method: (§1) Certain molecules disclosed in this document were tested against BAW and CEW using procedures described in the following examples. In the reporting of the results, the “BAW & CEW Rating Table” was used (See Table Section).
Bioassays on CEW (Helicoverpa zea)
Bioassays on CEW were conducted using a 128-well diet tray assay. one to five second instar CEW larvae were placed in each well (3 mL) of the diet tray that had been previously filled with 1 mL of artificial diet to which 50 μg/cm^2 of the test compound (dissolved in 50 μL of 90:10 acetone-water mixture) had been applied (to each of eight wells) and then allowed to dry. Trays were covered with a clear self-adhesive cover, and held at 25° C., 14:10 light-dark for five to seven days. Percent mortality was recorded for the larvae in each well; activity in the eight wells was then averaged. The results are indicated in the table entitled “Table 3: Assay Results” (See Table Section).

[2] = test system: Beet Armyworm (BAW) (Spodoptera exigua); assay: Bioassays on Beet Armyworm (BAW), 128-well diet tray assay; assay type: in vivo; settings: 168 h, 50 μg/cm^2 test compound on artificial diet, second instar larvae, 25° C., five to seven days, average of eight wells, read-out: BAW Rating (% mortality)
Method: as §1
Bioassays on BAW (Spodoptera exigua)
Bioassays on BAW were conducted using a 128-well diet tray assay. one to five second instar BAW larvae were placed in each well (3 mL) of the diet tray that had been previously filled with 1 mL of artificial diet to which 50 μg/cm^2 of the test compound (dissolved in 50 μL of 90:10 acetone-water mixture) had been applied (to each of eight wells) and then allowed to dry. Trays were covered with a clear self-adhesive cover, and held at 25° C., 14:10 light-dark for five to seven days. Percent mortality was recorded for the larvae in each well; activity in the eight wells was then averaged. The results are indicated in the table entitled “Table 3: Assay Results” (See Table Section).

Compound	mortality at 50 µg/cm2 [1]	mortality at 50 µg/cm2 [2]
CNC(=O)c1ccc(/C=C/C(c2cc(Cl)cc(Cl)c2)C(F)(F)F)cc1 (stereo not drawn) [AC1]	0%	0%
CN(C)C(=O)c1ccc(/C=C/C(c2cc(Cl)cc(Cl)c2)C(F)(F)F)cc1 (stereo not drawn) [AC3]	0%	0%
O=C(NCC(F)(F)F)c1ccc(/C=C/C(c2cc(Cl)cc(Cl)c2)C(F)(F)F)cc1 (stereo not drawn) [AC4]	50 to 100%	0%
O=C(c1ccc(/C=C/C(c2cc(Cl)cc(Cl)c2)C(F)(F)F)cc1)N1CCOCC1 (stereo not drawn) [AC5]	0%	0%
Cc1cc(/C=C/C(c2cc(Cl)cc(Cl)c2)C(F)(F)F)ccc1C(=O)NCC(F)(F)F (stereo not drawn) [AC6, (E)-4-(3-(3,5-dichlorophenyl)-4,4,4-trifluorobut-1-enyl)-2-methyl-N-(2,2,2-trifluoroethyl)benzamide]	50 to 100%	0%
Cc1cc(/C=C/C(c2cc(Cl)cc(Cl)c2)C(F)(F)F)ccc1C(=O)NCc1ccc(Cl)nc1 (stereo not drawn) [AC7]	50 to 100%	50 to 100%
Cc1cc(/C=C/C(c2cc(Cl)cc(Cl)c2)C(F)(F)F)ccc1C(=O)N1CCCC1=O (stereo not drawn) [AC8]	0 to 50%	0%
Cc1cc(/C=C/C(c2cc(Cl)cc(Cl)c2)C(F)(F)F)ccc1C(=O)NCc1ccccc1F (stereo not drawn) [AC9]	50 to 100%	50 to 100%
Cc1cc(/C=C/C(c2cc(Cl)cc(Cl)c2)C(F)(F)F)ccc1C(=O)NC1CSC1 (stereo not drawn) [AC10]	50 to 100%	50 to 100%
Cc1cc(/C=C/C(c2cc(Cl)cc(Cl)c2)C(F)(F)F)ccc1C(=O)NCc1ccccc1 (stereo not drawn) [AC11]	50 to 100%	50 to 100%
Cc1cc(/C=C/C(c2cc(Cl)cc(Cl)c2)C(F)(F)F)ccc1C(=O)NCc1ccccn1 (stereo not drawn) [AC12]	50 to 100%	50 to 100%
Cc1cc(/C=C/C(c2cc(Cl)cc(Cl)c2)C(F)(F)F)ccc1C(=O)NC1CS(=O)(=O)C1 (stereo not drawn) [AC13]	50 to 100%	50 to 100%
Cc1cc(/C=C/C(c2cc(Cl)cc(Cl)c2)C(F)(F)F)ccc1C(=O)NCc1cccnc1 (stereo not drawn) [AC14]	0 to 50%	50 to 100%
Cc1cc(/C=C/C(c2cc(Cl)cc(Cl)c2)C(F)(F)F)ccc1C(=O)NCc1cnc(Cl)s1 (stereo not drawn) [AC15]	50 to 100%	50 to 100%
Cc1cc(/C=C/C(c2cc(Cl)cc(Cl)c2)C(F)(F)F)ccc1C(=O)NC(C)(C)c1ccccn1 (stereo not drawn) [AC16]	50 to 100%	50 to 100%
Cc1cc(/C=C/C(c2cc(Cl)cc(Cl)c2)C(F)(F)F)ccc1C(=O)NNc1ccccc1F (stereo not drawn) [AC17]	50 to 100%	50 to 100%
Cc1cc(/C=C/C(c2cc(Cl)cc(Cl)c2)C(F)(F)F)ccc1C(=O)NCc1ncccn1 (stereo not drawn) [AC18]	50 to 100%	50 to 100%
Cc1cc(/C=C/C(c2cc(Cl)cc(Cl)c2)C(F)(F)F)ccc1C(=O)NCC1CCOC1 (stereo not drawn) [AC19]	0%	0%
Cc1cc(/C=C/C(c2cc(Cl)cc(Cl)c2)C(F)(F)F)ccc1C(=O)NCc1ccoc1 (stereo not drawn) [AC20]	50 to 100%	50 to 100%
Cc1cc(/C=C/C(c2cc(Cl)cc(Cl)c2)C(F)(F)F)ccc1C(=O)NOCc1ccc(Cl)nc1 (stereo not drawn) [AC21]	0%	0%
Cc1cc(/C=C/C(c2cc(Cl)c(Cl)c(Cl)c2)C(F)(F)F)ccc1C(=O)NCc1ccc(Cl)nc1 (stereo not drawn) [AC22]	50 to 100%	50 to 100%

Compound	mortality at 50 µg/cm2 [1]	mortality at 50 µg/cm2 [2]
Cc1cc(/C=C/C(c2cc(Cl)c(Cl)c(Cl)c2)C(F)(F)F)ccc1C(=O)NC1CSC1 (stereo not drawn) [AC23]	50 to 100%	50 to 100%
Cc1cc(/C=C/C(c2cc(Cl)cc(Cl)c2)C(F)(F)F)ccc1C(=O)NCC(=O)NCC(F)(F)F (stereo not drawn) [AC24]	50 to 100%	50 to 100%
Cc1cc(/C=C/C(c2cc(Cl)c(Cl)c(Cl)c2)C(F)(F)F)ccc1C(=O)NC1CS(=O)(=O)C1 (stereo not drawn) [AC25]	50 to 100%	50 to 100%
Cc1cc(/C=C/C(c2cc(Cl)c(Cl)c(Cl)c2)C(F)(F)F)ccc1C(=O)NCc1cnc(Cl)s1 (stereo not drawn) [AC26]	50 to 100%	50 to 100%
Cc1cc(/C=C/C(c2cc(Cl)c(Cl)c(Cl)c2)C(F)(F)F)ccc1C(=O)NC(C)(C)c1ccccn1 (stereo not drawn) [AC27]	50 to 100%	50 to 100%
O=C(NCc1ccc(Cl)nc1)c1ccc(/C=C/C(c2cc(Cl)c(Cl)c(Cl)c2)C(F)(F)F)cc1Cl (stereo not drawn) [AC28]	50 to 100%	50 to 100%
O=C(NC1CSC1)c1ccc(/C=C/C(c2cc(Cl)c(Cl)c(Cl)c2)C(F)(F)F)cc1Cl (stereo not drawn) [AC29]	50 to 100%	50 to 100%
O=C(NC1CS(=O)(=O)C1)c1ccc(/C=C/C(c2cc(Cl)c(Cl)c(Cl)c2)C(F)(F)F)cc1Cl (stereo not drawn) [AC30]	50 to 100%	50 to 100%
O=C(NCc1ccc(Cl)nc1)c1ccc(/C=C/C(c2cc(Cl)c(Cl)c(Cl)c2)C(F)(F)F)cc1Br (stereo not drawn) [AC31]	50 to 100%	50 to 100%
O=C(NC1CSC1)c1ccc(/C=C/C(c2cc(Cl)c(Cl)c(Cl)c2)C(F)(F)F)cc1Br (stereo not drawn) [AC32]	50 to 100%	50 to 100%
O=C(NC1CS(=O)(=O)C1)c1ccc(/C=C/C(c2cc(Cl)c(Cl)c(Cl)c2)C(F)(F)F)cc1Br (stereo not drawn) [AC33]	50 to 100%	50 to 100%
O=C(NC1CSC1)c1ccc(/C=C/C(c2cc(Cl)c(Cl)c(Cl)c2)C(F)(F)F)cc1C(F)(F)F (stereo not drawn) [AC34]	50 to 100%	50 to 100%
O=C(NC1CS(=O)(=O)C1)c1ccc(/C=C/C(c2cc(Cl)c(Cl)c(Cl)c2)C(F)(F)F)cc1C(F)(F)F (stereo not drawn) [AC35]	50 to 100%	50 to 100%
O=C(NCc1ccc(Cl)nc1)c1ccc(/C=C/C(c2cc(Cl)c(Cl)c(Cl)c2)C(F)(F)F)cc1C(F)(F)F (stereo not drawn) [AC36]	50 to 100%	50 to 100%
Cc1cc(/C=C/C(c2ccc(Cl)c(Cl)c2)C(F)(F)F)ccc1C(=O)NCc1ccc(Cl)nc1 (stereo not drawn) [AC37]	50 to 100%	50 to 100%
Cc1cc(/C=C/C(c2cc(Cl)c(F)c(Cl)c2)C(F)(F)F)ccc1C(=O)NCc1ccc(Cl)nc1 (stereo not drawn) [AC38]	50 to 100%	50 to 100%
Cc1cc(/C=C/C(c2cc(Cl)cc(Cl)c2)C(F)(F)F)ccc1C(=O)NCc1cncnc1 (stereo not drawn) [AC39, 4-((E)-3-(3,5-dichlorophenyl)-4,4,4-trifluorobut-1-enyl)-2-methyl-N-((pyrimidin-5-yl)methyl)benzamide]	50 to 100%	50 to 100%
Cc1cc(/C=C/C(c2cc(Cl)cc(Cl)c2)C(F)(F)F)ccc1C(=O)NCC(=O)NC1CC1 (stereo not drawn) [AC40]	50 to 100%	50 to 100%
Cc1cc(/C=C/C(c2cc(Cl)cc(Cl)c2)C(F)(F)F)ccc1C(=O)NCC(=O)NC1CSC1 (stereo not drawn) [AC41]	0%	50 to 100%
Cc1cc(/C=C/C(c2cc(Cl)cc(Cl)c2)C(F)(F)F)ccc1C(=O)NCc1nc2ccccc2s1 (stereo not drawn) [AC42]	0%	50 to 100%
Cc1cc(/C=C/C(c2cc(Cl)cc(Cl)c2)C(F)(F)F)ccc1C(=O)NCc1cnccn1 (stereo not drawn) [AC43]	50 to 100%	50 to 100%
